A word on the IC50: it is the point on the concentration scale where inhibition reaches its midpoint.

The source of these data is PMC8050276, “Estradiol analogs attenuate autophagy, cell migration and invasion by direct and selective inhibition of TRPML1, independent of estrogen receptors” (Scientific Reports, 2021).

Type in all cases: cell-based
The target in one assay is T1, hTRPML2-YFP (Homo sapiens, UniProt Q8IZK6).
T1 construct: expressed in transfected cells
T1 sequence (Q8IZK6 1-566): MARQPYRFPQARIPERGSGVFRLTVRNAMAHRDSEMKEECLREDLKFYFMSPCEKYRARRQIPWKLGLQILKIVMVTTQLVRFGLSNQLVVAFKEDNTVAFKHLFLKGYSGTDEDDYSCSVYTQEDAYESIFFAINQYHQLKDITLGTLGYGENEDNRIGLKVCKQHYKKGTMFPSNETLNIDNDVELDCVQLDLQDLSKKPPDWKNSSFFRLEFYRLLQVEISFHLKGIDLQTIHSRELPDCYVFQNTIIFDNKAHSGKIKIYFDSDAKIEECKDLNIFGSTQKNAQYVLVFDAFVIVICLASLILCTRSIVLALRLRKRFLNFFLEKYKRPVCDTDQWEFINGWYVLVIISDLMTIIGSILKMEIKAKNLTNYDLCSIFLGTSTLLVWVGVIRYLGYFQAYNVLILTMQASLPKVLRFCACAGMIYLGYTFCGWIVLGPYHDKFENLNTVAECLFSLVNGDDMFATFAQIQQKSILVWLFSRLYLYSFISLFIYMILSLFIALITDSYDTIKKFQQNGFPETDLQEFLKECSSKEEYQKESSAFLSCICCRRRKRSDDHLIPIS
Description: Fluo-4 Ca2+ influx assay, HEK293 stably expressing hTRPML2-YFP, activated with ML-SA1.

In the next assay the target is T2, hTRPML3-YFP (Homo sapiens, UniProt Q8TDD5).
T2 construct: expressed in transfected cells
T2 sequence (Q8TDD5 whole entry): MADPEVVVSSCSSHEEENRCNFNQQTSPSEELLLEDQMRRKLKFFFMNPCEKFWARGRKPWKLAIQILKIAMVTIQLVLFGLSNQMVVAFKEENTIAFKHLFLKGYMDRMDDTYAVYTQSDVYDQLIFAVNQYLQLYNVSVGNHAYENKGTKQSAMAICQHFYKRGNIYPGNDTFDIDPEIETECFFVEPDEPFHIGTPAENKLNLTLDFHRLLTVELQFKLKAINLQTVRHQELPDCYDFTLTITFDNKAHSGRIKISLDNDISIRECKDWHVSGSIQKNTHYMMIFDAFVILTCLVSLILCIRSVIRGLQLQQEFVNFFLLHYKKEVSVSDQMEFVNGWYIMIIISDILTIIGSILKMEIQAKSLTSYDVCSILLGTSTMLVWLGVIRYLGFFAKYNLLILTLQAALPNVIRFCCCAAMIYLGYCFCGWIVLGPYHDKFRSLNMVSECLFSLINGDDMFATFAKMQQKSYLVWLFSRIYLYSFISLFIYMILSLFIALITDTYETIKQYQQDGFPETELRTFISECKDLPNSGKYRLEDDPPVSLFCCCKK
Description: Fluo-4 Ca2+ influx assay, HEK293 stably expressing hTRPML3-YFP, activated with ML-SA1.

The subject of a further assay is LC3. Description: Autophagy assay, LC3 immunoblot in human fibroblasts (Fed/Hbss, with bafilomycin A1). The settings on record: Hbss starvation, with BafA1. Here is the method: 5 × 10^4 wild-type human fibroblasts were seeded in a 12-well plate and treated overnight with DMSO or different TRPML1 inhibitors (EDME, PRU-10, PRU-12). The day after, cells were treated for 3 h in full media (Fed) or HBSS supplemented with 10 mM HEPES (nutrient starved) in presence of DMSO or different TRPML1 inhibitors (EDME, PRU-10, PRU-12). For autophagic flux experiments, cells were co-treated with 100 nM of bafilomycin A1 (Sigma).
Total cell lysates were prepared using TRIS HCl 10 mM pH 8.0 and 0.2% SDS supplemented with protein and phosphatase inhibitors (Sigma). Protein concentration was determined using the Bradford method. After SDS–polyacrylamide gel electrophoresis (PAGE) and immunoblotting, the protein recognized by the specific antibody was visualized by chemiluminescence methods (Luminata Crescendo Western HRP substrate, Millipore) using HRP-conjugated anti-rabbit or anti-mouse secondary antibodies (Cell Signalling). Images were acquired using Li-Cor Odyssey Fc Imaging System and densitometric quantification of unsaturated images was performed using ImageJ software (NIH). Uncropped and unprocessed western blot scans are provided as Fig. S1. The following primary antibodies were used: LC3 (Novus Cat. No. NB100-2220, 1:1000 in 5% milk), TFEB (Cell Signaling Cat. No. 4240, 1:1000 in 5% BSA) and β-actin (Santa Cruz Cat. No. Sc-47778, 1: 1000 in 5% BSA).
A general note: In western blotting, separated proteins are transferred to a membrane and probed.

For the next assay, the target named is T3, human ERα (Homo sapiens, UniProt P03372).
T3 construct: host or cells: Saccharomyces cerevisiae
T3 sequence (P03372 whole entry): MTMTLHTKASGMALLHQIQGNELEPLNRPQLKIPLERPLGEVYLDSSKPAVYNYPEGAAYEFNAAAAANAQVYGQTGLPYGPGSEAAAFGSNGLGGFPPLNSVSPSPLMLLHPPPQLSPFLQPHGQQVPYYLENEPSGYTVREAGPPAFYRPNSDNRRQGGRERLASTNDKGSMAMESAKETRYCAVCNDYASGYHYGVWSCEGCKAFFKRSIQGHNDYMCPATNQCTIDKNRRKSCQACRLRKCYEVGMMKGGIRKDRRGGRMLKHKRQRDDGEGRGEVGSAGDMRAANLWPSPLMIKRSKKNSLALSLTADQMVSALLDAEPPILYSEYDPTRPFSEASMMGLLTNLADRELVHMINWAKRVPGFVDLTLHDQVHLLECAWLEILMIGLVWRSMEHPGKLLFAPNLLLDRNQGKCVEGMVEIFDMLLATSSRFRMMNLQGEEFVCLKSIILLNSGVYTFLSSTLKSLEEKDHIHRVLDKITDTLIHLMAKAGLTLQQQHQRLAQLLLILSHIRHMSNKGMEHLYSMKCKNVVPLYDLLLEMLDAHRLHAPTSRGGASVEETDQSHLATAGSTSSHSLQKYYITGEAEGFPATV
Briefly: Yeast estrogen receptor assay (YES-assay), Saccharomyces cerevisiae transfected with human ERα, lacZ reporter. The settings on record: 0.01-100 µM, 48 h. The method, then: The yeast estrogen receptor assay (YES-assay) was provided by Dr. J.P. Sumpter (Brunel University, Uxbridge, UK; Routledge & Sumpter, 1996) and was used to determine the relative transactivation activity of the human ERα in response to test substances as previously described. Briefly, Saccharomyces cerevisiae stably transfected with a human ERα construct and an estrogen responsive element fused to the reporter gene lacZ encoding for β-galactosidase were treated with the test substances for 48 h. The β-galactosidase enzymatic activity was measured in a colorimetric assay using the substrate chlorophenol red β-D-galactopyranoside (Roche Diagnostics, Mannheim Germany). Formation of chlorophenol red was measured at 540 nm. For the test, all compounds were diluted in DMSO. 17β-estradiol (10 nM; Sigma, Deisenhofen, Germany) served as positive control and DMSO was used as vehicle control. All compounds, were dose dependently tested in a concentration range of 0.01–100 µM, using technical quadruplicates and biological triplicates.

Where [1] appears, read: TRPML2 IC50, Fluo-4, 5 µM ML-SA1, Table S1.
[2] abbreviates: Fluo-4, 5 µM ML-SA1, Table S1, read-out: TRPML3 IC50.

Where “and” joins values, the source holds several entries; their conditions need not be identical. Equal entries are not always repeated. Entries after “also recorded” stand apart in the source; their conditions may differ. Where two headings read alike, the source gives them in different places.

Take `COc1ccc2c(c1)CC[C@@H]1[C@@H]2CC[C@]2(C)[C@@H](O)CC[C@@H]12` [EDME, 17β-estradiol methyl ether]: the IC50 was 5.85 µM and 5.9 µM at hTRPML2-YFP (Fluo-4, 5 µM ML-SA1, Table S1, read-out: TRPML2 IC50); 19.5 µM at hTRPML3-YFP. Further, in the assay on LC3, the “concentration showing efficacy on autophagy (LC3)” value stood at 1 µM. At human ERα, the “effect/efficacy at ERα” value is “comparably strong effects”.
Regarding `C=Cc1ccc2c(c1)CC[C@@H]1[C@@H]2CC[C@]2(C)[C@@H](O)CC[C@@H]12` [PRU-10], the IC50 on hTRPML2-YFP (setting [1]) was 5.4 µM; at hTRPML3-YFP (setting [2]) it was 15.8 µM. Further, in the assay with LC3, the “concentration showing efficacy on autophagy (LC3)” value was 3 µM. The “effect/efficacy at ERα” value on human ERα is listed as “relatively low efficacy; also recorded: weakest effects”.
Taken in the same sequence, the figures for `CC(=O)c1ccc2c(c1)CC[C@@H]1[C@@H]2CC[C@]2(C)[C@@H](O)CC[C@@H]12` [PRU-12] were 5.28 µM, 14.1 µM, 1 µM and “relatively low efficacy; also recorded: weakest effects”.
